Experimental data from ChEMBL document CHEMBL5614417, “Discovery of AMPs from random peptides via deep learning-based model and biological activity validation” (Eur J Med Chem, 2024).
In brackets after ≈: the same amount, converted by molar mass. Activity calls are given as the source filed them. The rule behind the calls is not given here. Where a SMILES comes first, the peptide text is derived from it.

Columns and labels:
Staphylococcus aureus [1] = test: Antibacterial activity against methicillin resistant Staphylococcus aureus 4 incubated for 18 hrs by visual inspection method; assay type: functional
Staphylococcus aureus [2] = test: Antibacterial activity against methicillin resistant Staphylococcus aureus 2 incubated for 18 hrs by visual inspection method; assay type: functional
Staphylococcus aureus [3] = test: Antibacterial activity against methicillin resistant Staphylococcus aureus 1 incubated for 18 hrs by visual inspection method; assay type: functional
[4] = test system: Staphylococcus epidermidis; test: Antibacterial activity against Staphylococcus epidermidis ATCC 12228 incubated for 18 hrs by visual inspection method; assay type: functional
Bacillus subtilis = test: Antibacterial activity against Bacillus subtilis ATCC 23857 incubated for 18 hrs by visual inspection method; assay type: functional
Staphylococcus aureus [5] = test: Antibacterial activity against Staphylococcus aureus ATCC 25923 incubated for 18 hrs by visual inspection method; assay type: functional
Staphylococcus aureus [6] = test: Antibacterial activity against Staphylococcus aureus infected in BALB/c mouse at 10 mg/kg administered every 4 hrs for 3 doses and measured after 4 hrs post last dose; assay type: functional, organism-based; conditions: time 16.0 hrs
Staphylococcus aureus [7] = test: Antibacterial activity against methicillin resistant Staphylococcus aureus 3 incubated for 18 hrs by visual inspection method; assay type: functional
Acinetobacter baumannii = test: Antibacterial activity against Acinetobacter baumannii ATCC 19606 incubated for 18 hrs by visual inspection method; assay type: functional
Klebsiella pneumoniae = test: Antibacterial activity against Klebsiella pneumoniae ATCC 700603 incubated for 18 hrs by visual inspection method; assay type: functional
Escherichia coli = test: Antibacterial activity against Escherichia coli ATCC 25922 incubated for 18 hrs by visual inspection method; assay type: functional

Row | SMILES | MIC (Staphylococcus aureus [1]) [µg/mL] | MIC (Staphylococcus aureus [2]) [µg/mL] | MIC (Staphylococcus aureus [3]) [µg/mL] | MIC [4] [µg/mL] | MIC (Bacillus subtilis) [µg/mL] | MIC (Staphylococcus aureus [5]) [µg/mL] | Activity (Staphylococcus aureus [6]) | MIC (Staphylococcus aureus [7]) [µg/mL] | MIC (Acinetobacter baumannii) [µg/mL] | MIC (Klebsiella pneumoniae) [µg/mL] | MIC (Escherichia coli) [µg/mL]
1 | CN[C@H](CC(C)C)C(=O)N[C@H]1C(=O)N[C@@H](CC(N)=O)C(=O)N[C@H]2C(=O)N[C@H]3C(=O)N[C@H](C(=O)N[C@H](C(=O)O)c4cc(O)cc(O)c4-c4cc3ccc4O)[C@H](O)c3ccc(c(Cl)c3)Oc3cc2cc(c3O[C@@H]2O[C@H](CO)[C@@H](O)[C@H](O)[C@H]2O[C@H]2C[C@](C)(N)[C@H](O)[C@H](C)O2)Oc2ccc(cc2Cl)[C@H]1O [VANCOMYCIN] | 0.94 (≈ 0.649 µM) | 0.94 (≈ 0.649 µM) | 0.94 (≈ 0.649 µM) | 0.94 (≈ 0.649 µM) | 0.94 (≈ 0.649 µM) | 0.94 (≈ 0.649 µM) | Active | 0.94 (≈ 0.649 µM) |  |  | 
2 | CC[C@H](C)[C@H](N)C(=O)N[C@H](C(=O)N[C@@H](Cc1ccccc1)C(=O)N[C@@H](CC(C)C)C(=O)N[C@H](C(=O)N[C@@H](CO)C(=O)NCC(=O)N[C@@H](Cc1ccccc1)C(=O)N[C@@H](CCCCN)C(=O)N[C@@H](CS)C(=O)N[C@@H](Cc1ccccc1)C(=O)N[C@@H](CCCCN)C(=O)NCC(N)=O)[C@@H](C)CC)C(C)C (H-IVFLISGFKCFKG-NH2) |  |  |  | > 60 | > 60 | > 60 |  |  | > 60 | > 60 | > 60
3 | CC[C@H](C)[C@H](NC(=O)[C@H](CCCCN)NC(=O)[C@H](Cc1c[nH]c2ccccc12)NC(=O)[C@H](C)NC(=O)[C@@H]1CCCN1C(=O)[C@H]1CCCN1C(=O)[C@@H](CC(C)C)NC(=O)[C@H](N)C(C)C)C(=O)N[C@@H](CCCCN)C(=O)N[C@@H](CCCCN)C(=O)NCC(=O)N[C@@H](Cc1ccccc1)C(=O)N[C@@H](CCC(N)=O)C(N)=O |  |  |  | > 60 | > 60 | > 60 |  |  | > 60 | > 60 | > 60
4 | CC[C@H](C)[C@H](NC(=O)[C@H](CCCNC(=N)N)NC(=O)[C@H](Cc1c[nH]c2ccccc12)NC(=O)[C@@H](NC(=O)[C@H](Cc1c[nH]cn1)NC(=O)[C@H](Cc1c[nH]c2ccccc12)NC(=O)[C@@H](N)Cc1c[nH]c2ccccc12)[C@@H](C)CC)C(=O)N[C@@H](CO)C(=O)N[C@@H](CCSC)C(=O)N[C@@H](Cc1c[nH]c2ccccc12)C(=O)N[C@@H](CCSC)C(=O)N[C@@H](CS)C(=O)NCC(N)=O (H-WWHIWRISMWMCG-NH2) |  |  |  | > 60 | > 60 | > 60 |  |  | > 60 | > 60 | > 60
